Reference: ChEMBL document CHEMBL1201862, “PubChem BioAssay data set” (2004)
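Test compounds were applied to cells in 96-well plates for 48 hours at 5 doses. Abbreviation: GI50, concentration required for 50% inhibition of growth.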 Active and inactive are the calls of the source. Cut-off read from the data, not from the text of the source: active = GI50 up to about 1.1 µM and inactive = higher.

Legend:
Assay in all cases: inhibition of tumour cell growth, NCI panel, 48 h
[1] = test system: A498
[2] = test system: CCRF-CEM
[3] = test system: DLD-1
[4] = test system: EKVX
[5] = test system: HCC 2998
[6] = test system: HOP-62
[7] = test system: HOP-92
[8] = test system: HT-29
[9] = test system: M14
[10] = test system: MOLT-4
[11] = test system: NCI-H226
[12] = test system: NCI-H23
[13] = test system: NCI-H460
[14] = test system: NCI-H522
[15] = test system: OVCAR-5
[16] = test system: SF-268
[17] = test system: SF-295
[18] = test system: SK-MEL-5
[19] = test system: SR
[20] = test system: U-251

Measured: GI50

CCOc1ccc(OCC(=O)O)c2c1CCCC2=O
inactive: [1] > 100 µM | [2] > 10 µM | [3] > 100 µM | [4] > 100 µM | [5] > 100 µM | [6] > 100 µM | [7] > 100 µM | [8] > 100 µM | [9] > 100 µM | [10] > 100 µM | [11] > 100 µM | [12] > 100 µM | [13] > 100 µM | [14] > 100 µM | [15] > 100 µM | [16] > 100 µM | [17] > 100 µM | [18] > 100 µM | [19] > 100 µM | [20] > 100 µM

COc1ccc(C(=O)c2c(C(C(=O)c3ccc(OC)cc3)C(=O)c3ccc(OC)cc3)n(C(=O)c3ccc(OC)cc3)c3ccccc23)cc1
inactive: [1] > 100 µM | [2] > 100 µM | [3] > 100 µM | [4] > 100 µM | [5] > 100 µM | [6] > 100 µM | [7] > 100 µM | [8] > 100 µM | [9] > 100 µM | [10] > 100 µM | [11] > 100 µM | [12] > 100 µM | [13] > 100 µM | [14] > 100 µM | [15] > 100 µM | [16] > 100 µM | [17] > 100 µM | [18] > 100 µM | [19] > 100 µM | [20] > 100 µM

CCOC(OCC)(OCC)C(Br)CC (stereo not given)
inactive: [1] > 100 µM | [2] 28.2 µM | [3] 22 µM | [4] > 100 µM | [5] > 100 µM | [6] > 100 µM | [7] > 100 µM | [8] 53.6 µM | [9] > 100 µM | [10] > 100 µM | [11] > 100 µM | [12] > 100 µM | [13] > 100 µM | [14] > 100 µM | [15] > 100 µM | [16] 36.7 µM | [17] > 100 µM | [18] > 100 µM | [19] 21.6 µM | [20] > 100 µM

CCCCOC(=O)NC(=O)c1cn(CCCOC(=O)CCCCCCCCC(=O)OCCCn2cc(C(=O)NC(=O)OCCCC)c(=O)n(C)c2=O)c(=O)n(C)c1=O
inactive: [1] > 100 µM | [2] > 100 µM | [3] > 100 µM | [4] > 100 µM | [5] > 100 µM | [6] > 100 µM | [7] > 100 µM | [8] > 100 µM | [9] > 100 µM | [10] > 100 µM | [11] > 100 µM | [12] > 100 µM | [13] > 100 µM | [14] > 100 µM | [15] > 100 µM | [16] > 100 µM | [17] > 100 µM | [18] > 100 µM | [19] > 100 µM | [20] > 100 µM

CCN(CCO)CCNc1ccc(C)c2sc3ccccc3c(=O)c12
inactive: [1] 15 µM | [2] 6.04 µM | [3] 3.83 µM | [4] 12.5 µM | [5] 2.28 µM | [6] 3.97 µM | [7] 4.37 µM | [8] 2.52 µM | [9] 1.78 µM | [10] 4.43 µM | [11] 4 µM | [12] 8.05 µM | [13] 1.73 µM | [14] 4.89 µM | [15] 5.15 µM | [16] 6.85 µM | [17] 3.82 µM | [18] 2.59 µM | [19] 6.01 µM | [20] 3.69 µM

CCN(CC)CCCC(C)Nc1c2cc(OC)cc(C)c2nc2c(C)c(Cl)ccc12 (stereo not given)
inactive: [1] 2.43 µM | [2] 1.47 µM | [3] 1.53 µM | [4] 1.85 µM | [5] 1.63 µM | [6] 1.66 µM | [7] 1.22 µM | [8] 1.62 µM | [9] 2.02 µM | [10] 1.74 µM | [11] 1.82 µM | [12] 1.48 µM | [13] 1.8 µM | [14] 1.67 µM | [15] 2.1 µM | [16] 1.97 µM | [17] 2.22 µM | [18] 1.87 µM | [19] 2.01 µM | [20] 1.85 µM

Cc1cc(=O)oc2c(C3=NN(C=O)C(c4ccccc4)C3)c(O)ccc12 (stereo not given)
inactive: [1] > 56.2 µM | [2] 60.5 µM | [3] > 100 µM | [4] 72.6 µM | [5] > 87.7 µM | [6] 37.1 µM | [7] 23 µM | [8] > 80.7 µM | [9] 51.9 µM | [10] > 73.6 µM | [11] > 76 µM | [12] 85.9 µM | [13] 73.3 µM | [14] 54 µM | [15] > 87.7 µM | [16] 31.6 µM | [17] 10 µM | [18] 56.2 µM | [19] 60.1 µM | [20] 32.7 µM
